Measurements as given in patent US8686113B2 (priority 2009, dated 2014).
≈ marks a conversion by molar mass, not a printed value. Read-outs that look alike come from different tables or passages of the source. Non-standard residues stand in square brackets, D forms with d. Residues, ends and D or L forms follow the SMILES beside them. Hyp = O=C(O)[C@@H]1C[C@@H](O)CN1; Tle = CC(C)(C)[C@H](N)C(=O)O; Orn = NCCC[C@H](N)C(=O)O

Key:
[1] = system: P. aeruginosa 10 J. Wilson
Protocol: (§1) The minimum inhibitory concentrations (MIC) of the antimicrobial peptides and peptide derivatives were determined in microdilution assays. These used a continuous peptide dilution in sterile flat-bottomed 96-well microtiter plates (polystyrene, Greiner Bio-One GmbH, Frickenhausen, Germany) and a total volume of 100 μL per well. The aqueous peptide or peptidomimetic solutions were diluted with 1% TSB water, to obtain a final concentration of 256 μg/mL. 50 μL of the peptide or peptidomimetic solution was pipetted into the first well of each series and stirred. From this solution, 50 μL was transferred to the second well, stirred and again 50 μL was transferred to the next well, and so on. A double dilution series is obtained, beginning at 256 μg/mL in the first well to 125 ng/mL in the twelfth well. The bacteria, e.g. E. coli BL21 A1, were cultured overnight at 37° C. in nutrient broth (NB, Carl Roth GmbH+Co. KG, Karlsruhe, Germany). 50 μL of a 5×10^6 bacteria/mL suspension in 1% TSB was added to each well of the microtiter plate and thus a final concentration of the peptides or peptidomimetics from 128 μg/mL (well 1) to 62.5 ng/mL (well 12) was established in each series. The plates were incubated at 37° C. for 20 h and then the absorption was measured at 595 nm with a TECAN microtiter plate spectrophotometer (Tecan Trading AG, Mannedorf, Switzerland). The MIC values of all peptides and peptidomimetics were determined in triplicate. Sterile water was used as negative control.
(§2) The tests were in this case carried out in Mueller-Hinton medium (¼ concentrated), which is equivalent to 1% TSB.

E. coli ATCC BAA-457 = details: ¼ Muller-Hinton medium
Protocol: as §1, §2

P. aeruginosa 39324 = system: P. aeruginosa 39324
Protocol: as §1, §2

[2] = system: S. typhimurium s5 (J. Weiser); details: ¼ Muller-Hinton medium
Protocol: as §1, §2

[3] = system: S. typhimurium ATCC 14028
Protocol: as §1, §2

[4] = system: K. pneumoniae K6 ATCC 700603; details: ATCC 700603
Protocol: as §1, §2

K. pneumoniae ATCC 27799 = details: ATCC 27799
Protocol: as §1, §2

[5] = system: S. typhimurium ATCC 700408
Protocol: as §1, §2

P. vulgaris ATCC 6896 = system: P. vulgaris ATCC 6896
Protocol: as §1, §2

P. mirabilis ATCC 7002 = system: P. mirabilis ATCC 7002
Protocol: as §1, §2

K. pneumoniae 012-3131 = system: K. pneumoniae 012-3131
Protocol: as §1, §2

E. coli 045-849 SENTRY = details: ¼ Muller-Hinton medium
Protocol: as §1, §2

S. saprophyticus 15305 = system: S. saprophyticus 15305
Protocol: as §1, §2

E. coli D31 J. Wilson = details: ¼ Muller-Hinton medium
Protocol: as §1, §2

E. coli BL21 A1 = assay type: cell-based, Escherichia coli; details: BL21, 20 h
Procedure, shortened: (§3)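 Broth microdilution in 1% TSB with twofold peptide series, final 128 μg/mL to 62.5 ng/mL, against 5×10^6 bacteria/mL stock suspension added 1:1. Incubated 20 h at 37 °C, growth read by absorbance at 595 nm; MIC is the lowest concentration with no growth, determined in triplicate.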

[6] = mouse, serum, Half-life in 25% mouse serum, 25% aqueous mouse serum, 37° C., 75 μg/mL peptide
Protocol: (§7) For this, the peptides and peptidomimetics were dissolved in water, mouse serum was added and the peptide concentration was adjusted to 75 μg/mL. While shaking continuously, the mixture was incubated at 37° C. After 0, 30, 60, 120, 240 and 360 minutes, in each case an aliquot was taken and mixed with 15% aqueous trichloroacetic acid (Carl Roth GmbH & Co. KG; Karlsruhe, Germany). After incubation on ice for a further 10 minutes, the precipitated serum proteins were centrifuged off (5 min, 13400 rpm, MiniSpin, Eppendorf AG, Hamburg, Germany). The supernatant was removed, neutralized with 1 mol/L aqueous sodium hydroxide solution (Fluke Chemie GmbH, Buchs, Switzerland) and stored at −20° C. until analysis.
(§8) The supernatants were analyzed by RP-HPLC with a linear acetonitrile gradient (Biosolve BV, Valkenswaard, The Netherlands) in the presence of 0.1% trifluoroacetic acid (TFA, UV-grade, Fluka Chemie GmbH, Buchs, Switzerland) as ion-pairing reagent. The fractions were co-crystallized with α-cyanohydroxycinnamic acid (Bruker Daltonik GmbH; Bremen, Germany) as matrix (5.3 mg/mL in 50% acetonitrile in 0.1% aqueous TFA) and were analyzed with a tandem mass spectrometer (MALDI-TOF/TOF-MS, 4700 Proteomics Analyzer; Applied Biosystems GmbH, Weiterstadt, Germany) in the positive-ion reflector mode. The proportion of intact peptides and their degradation products or metabolites could thus be identified and quantified at the individual time points. The control used was 25% aqueous mouse serum, which was analyzed in parallel for the same time intervals.

M. luteus 10240 = experiment: Growth inhibition assay (microdilution MIC); assay type: cell-based, Micrococcus luteus; details: 10240, 20 h
Procedure, shortened: as §3

[7] = mouse, serum
[8] = system: bacterial proteases (E. coli BL21 A1 lysate); experiment: Stability against bacterial proteases in E. coli lysate; assay type: in vitro ADME; details: E. coli lysate with 0.5 mg/mL protein concentration, 37° C.
Protocol: (§4) For the bacterial lysate, 500 mL of nutrient broth (Carl Roth GmbH+Co. KG, Karlsruhe) was inoculated with E. coli BL21 A1 and incubated overnight at 37° C. 2×250 mL bacterial suspension were centrifuged for 25 min at 5000 rpm and 4° C. in a Beckman Avanti™ J-20-XP centrifuge with JLA-10.500 rotor (Beckman Coulter, Fullerton, U.S.A.). The pellets were each suspended in 30 mL PBS (pH 7.4) and centrifuged again in a Beckman Allegra™ 2IR centrifuge (Beckman Coulter, Fullerton, U.S.A.). The pellets were each suspended in 10 mL PBS and were disrupted with ultrasound (Vibra-cell™ microtip, Fisher Bioblock Scientific, Illkirch, France) 2×5 min (750 W; amplitude 40%; 2 s on/3 s off) on ice. The bacterial lysates were combined and 1 mL aliquots were centrifuged at 15400 rpm for 20 min at 4° C. (Beckman Allegra™). The supernatants were removed and stored at −20° C. The protein content of the bacterial lysate was determined by protein determination according to Bradford.
(§5) A solution of 0.15 μg/mL peptide in bacterial lysate with protein content of 1.5 mg/mL or 0.5 mg/mL was incubated at 37° C. After 0, 30, 60, 120, 240 or 360 min, 200 μL was taken from each and the proteins were precipitated with 50 μL of 15% trichloroacetic acid. Then it was incubated for 10 min at 4° C. and then centrifuged for 5 min at 13000 rpm in a Minispin desktop centrifuge. 210 μL was taken from the supernatant and neutralized with 1 mol/L sodium hydroxide solution. The intact peptide and the degradation products were analyzed by HPLC. 60 μL of 3% aqueous acetonitrile with 0.1% trifluoroacetic acid (TFA) was added to the solution and 250 μL of the mixture was injected. After chromatographic separation, the constituents were identified by MALDI-TOF-MS,
(§6) In order to investigate the stability against bacterial proteases, a lysate was prepared from an overnight culture of E. coli BL21 A1 and the peptides were incubated in it. Using Bradford protein determination, the protein concentration was adjusted to 0.5 or 1.5 mg/mL.

[9] = 25% aqueous mouse serum, 37° C., 75 μg/mL peptide
Protocol: as §7, §8

[10] = system: Klebsiella pneumoniae DSM 681
[11] = system: Escherichia coli DSM 10233
[12] = system: Pseudomonas aeruginosa DSM 3227
[13] = Stability against bacterial proteases in E. coli lysate; assay type: in vitro ADME; details: E. coli BL21 A1 lysate (bacterial proteases), pH 7.4; E. coli lysate with 0.5 mg/mL protein concentration; read-out: percentage printed under half-life >240 min (peptide remaining)
Protocol: as §4, §5, §6
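Throughout, for Half-life in 25% mouse serum: intact peptide left at successive time points measured by reversed-phase HPLC with an acetonitrile gradient in the supernatant after precipitation of serum proteins.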

| Compound | MIC P. aeruginosa 10 J. Wilson [1] [µg/mL] | MIC E. coli SEQ 102ATCC # BAA-4 57 (E. coli ATCC BAA-457) [µg/mL] | MIC P. aeruginosa 39324 (P. aeruginosa 39324) [µg/mL] | MIC S. typhimurium s5 (J. Weiser) [2] [µg/mL] | MIC S. typhimurium ATCC 14028 [3] [µg/mL] | MIC K. pneumoniae K6 ATCC 700603 [4] [µg/mL] | MIC K. pneumoniae ATCC 27799 (K. pneumoniae ATCC 27799) [µg/mL] | MIC S. typhimurium ATCC 700408 [5] [µg/mL] | MIC K. pneumoniae 012-3131 (K. pneumoniae 012-3131) [µg/mL] | MIC E. coli 045-849 SENTRY (E. coli 045-849 SENTRY) [µg/mL] | MIC S. saprophyticus 15305 (S. saprophyticus 15305; 15305) [µg/mL] | MIC E. coli D31 J. Wilson (E. coli D31 J. Wilson) [µg/mL] | MIC E. coli BL21 A1 (E. coli BL21 A1) [µg/mL] | MIC M. luteus 10240 (M. luteus 10240) [µg/mL] | half-life [7] [h] | Half-life in E. coli lysate [8] [h] | MIC P. vulgaris ATCC 6896 (P. vulgaris ATCC 6896; ¼ Muller-Hinton medium) | MIC P. mirabilis ATCC 7002 (P. mirabilis ATCC 7002; ¼ Muller-Hinton medium) | also measured |
| --- | --- | --- | --- | --- | --- | --- | --- | --- | --- | --- | --- | --- | --- | --- | --- | --- | --- | --- | --- |
| CC[C@H](C)[C@H](NC(=O)[C@H](CCCNC(=N)N)NC(=O)[C@H](CCCNC(=N)N)NC(=O)[C@@H]1C[C@@H](O)CN1C(=O)[C@@H]1CCCN1C(=O)[C@H](CCCNC(=N)N)NC(=O)[C@@H]1CCCN1C(=O)[C@H](CCCNC(=N)N)NC(=O)[C@@H]1CCCN1C(=O)[C@H](CC(C)C)NC(=O)[C@H](Cc1ccc(O)cc1)NC(=O)[C@@H]1CCCN1C(=O)[C@@H]1CCCN1C(=O)[C@H](CCCCN)NC(=O)[C@H](CC(=O)O)NC(=O)[C@@H](N)C(C)C)C(=O)N[C@@H](Cc1ccc(O)cc1)C(=O)N[C@@H](CC(N)=O)C(=O)N[C@@H](CCCNC(=N)N)C(N)=O [compound 24] (H-VDKPPYLPRPRP[Hyp]RRIYNR-NH2) | 2 (≈ 0.831 µM) | 4 (≈ 1.66 µM) | 4 (≈ 1.66 µM) | 2 (≈ 0.831 µM) | 2 (≈ 0.831 µM) | 8 (≈ 3.33 µM) | 8 (≈ 3.33 µM) | 0.13 (≈ 0.054 µM) | 2 (≈ 0.831 µM) | 2 (≈ 0.831 µM) | 16 (≈ 6.65 µM) | 1 (≈ 0.416 µM) | 8 (≈ 3.33 µM) | 8 (≈ 3.33 µM) | 0.583 |  |  |  | MIC P. vulgaris ATCC 6896 (P. vulgaris ATCC 6896; ATCC 6896): 128 µg/mL (≈ 53.2 µM); MIC P. mirabilis ATCC 7002 (P. mirabilis ATCC 7002; ATCC 7002): 128 µg/mL (≈ 53.2 µM); half-life [6]: 1 h |
| CC[C@H](C)[C@H](NC(=O)[C@H](CCCN)NC(=O)[C@H](CCCNC(=N)N)NC(=O)[C@@H]1CCCN1C(=O)[C@@H]1CCCN1C(=O)[C@H](CCCNC(=N)N)NC(=O)[C@@H]1CCCN1C(=O)[C@H](CCCNC(=N)N)NC(=O)[C@@H]1CCCN1C(=O)[C@H](CC(C)C)NC(=O)[C@H](Cc1ccc(O)cc1)NC(=O)[C@@H]1CCCN1C(=O)[C@@H]1CCCN1C(=O)[C@H](CCCCN)NC(=O)[C@H](CC(=O)O)NC(=O)[C@@H](N)C(C)C)C(=O)N[C@@H](Cc1ccc(O)cc1)C(=O)N[C@@H](CC(N)=O)C(=O)N[C@@H](CCCN)C(N)=O [compound 72] (H-VDKPPYLPRPRPPR[Orn]IYN[Orn]-NH2) |  |  |  |  |  |  |  |  |  |  |  |  |  |  | 2.92 | 2.08 |  |  | Half-life in 25% mouse serum [9]: >6 h; MIC K. pneumoniae DSM 681 [10]: 4 µg/mL (≈ 1.73 µM); MIC E. coli DSM 10233 [11]: 32 µg/mL (≈ 13.9 µM); MIC P. aeruginosa DSM 3227 [12]: >32 µg/mL |
| CC(C)C[C@H](NC(=O)[C@H](Cc1ccc(O)cc1)NC(=O)[C@@H]1CCCN1C(=O)[C@@H]1CCCN1C(=O)[C@H](CCCCN)NC(=O)[C@H](CC(=O)O)NC(=O)[C@@H](N)C(C)C)C(=O)N1CCC[C@H]1C(=O)N[C@@H](CCCNC(=N)N)C(=O)N1CCC[C@H]1C(=O)N[C@@H](CCCNC(=N)N)C(=O)N1CCC[C@H]1C(=O)N1CCC[C@H]1C(=O)N[C@@H](CCCNC(=N)N)C(=O)N[C@@H](CCCN)C(=O)N[C@H](C(=O)N[C@@H](Cc1ccc(O)cc1)C(=O)N[C@@H](CC(N)=O)C(=O)N[C@@H](CCCN)C(N)=O)C(C)(C)C [compound 109] (H-VDKPPYLPRPRPPR[Orn][Tle]YN[Orn]-NH2) |  |  |  |  |  |  |  |  |  |  |  |  | 4 (≈ 1.73 µM) | 4 (≈ 1.73 µM) | 2.17 | >4 |  |  | remaining at 4 h, 0.15 μg/mL [13]: 90% |
| H-GKPRPYSPRPTSHPRPIRV-OH [compound 89] | 16 | 2 | 32 | 1 | 8 | 8 | 8 | 0.5 | 4 | 2 | >64 | 4 | 4 |  |  |  | > | > |  |
| H-GNNRPVYIPQPRPPHPRL-OH [compound 87] | 32 | 1 | 64 | 0.5 | 0.5 | 16 | 4 | 0.13 | 16 | 0.5 |  | 1 | 2 |  |  |  | > | > | MIC S. saprophyticus 15305 (S. saprophyticus 15305; ¼ Muller-Hinton medium): > |
